pIC50, pKd: −log10 of the molar value. The source made the active and inactive calls. No cut-off for these calls is given here.
What was measured:
[1] = molecular target: GTPase KRas (Homo sapiens) (UniProt P01116); assay: Inhibition of KRAS in human MIA PaCa-2 cells assessed as decrease in total protein level at 1.25 to 5 uM incubated for 24 hrs by Western blot analysis; type: cell-based; settings: dose 1.25-5 µM
[2] = molecular target: GTPase KRas (Homo sapiens) (UniProt P01116); assay: Inhibition of KRAS in human MIA PaCa-2 cells assessed as decrease in mTOR phosphorylation incubated for 24 hrs by Western blot analysis; type: cell-based; settings: dose 1.25-5 µM
[3] = molecular target: GTPase KRas (Homo sapiens) (UniProt P01116); assay: Inhibition of KRAS in human MIA PaCa-2 cells assessed as decrease in mTOR phosphorylation at 2.5 uM by Western blot analysis; type: cell-based; settings: time <= 24.0 hrs, TDE = time-dependent effect
[4] = tested on: PANC-1; assay: Effect on KRAS mRNA level in human PANC-1 cells harboring KRAS G12D mutant at upto 5 uM incubated upto 48 hrs by RT-qPCR analysis; type: functional, cell-based
[5] = tested on: NCM460; assay: Cytotoxicity against human NCM460 cells harboring wild-type KRAS assessed as cell growth inhibition incubated for 24 hrs by MTT assay; type: functional, cell-based; settings: NCM460, 24 h
[6] = Toxicity in BALB/C-nu/nu mouse model xenografted with human MIA PaCa-2 cells assessed as signs of discomfort at 2.5 to 5 mg/kg,ip everyday for 18 days; type: organism-based; settings: in vivo, 432 h, dose 2.5-5 mg/kg, time 18 day
[7] = tested on: SW-620; assay: Cytotoxicity against human SW620 cells harboring KRAS G12V mutant assessed as cell growth inhibition incubated for 24 hrs by MTT assay; type: functional, cell-based; settings: SW-620, 24 h
[8] = molecular target: GTPase KRas (Homo sapiens) (UniProt P01116); assay: Inhibition of KRAS in human MIA PaCa-2 cells assessed as decrease in MEK phosphorylation at 2.5 uM by Western blot analysis; type: cell-based; settings: time <= 24.0 hrs, TDE = time-dependent effect
[9] = tested on: PANC-1; assay: Effect on NRAS level in human PANC-1 cells harboring KRAS G12D mutant at 1.25 to 5 uM by Western blot analysis; type: functional, cell-based; settings: dose 1.25-5 µM
[10] = molecular target: Quadruplex DNA; assay: Binding affinity to KRAS utr-1 G-Quadruplex (unknown origin) assessed as dissociation constant by fluorescence spectroscopy; type: nucleic-acid assay
[11] = molecular target: Quadruplex DNA; assay: Binding affinity to KRAS utr-z G-Quadruplex (unknown origin) assessed as dissociation constant by fluorescence spectroscopy; type: nucleic-acid assay
[12] = molecular target: Quadruplex DNA; assay: Binding affinity to SS12 G-Quadruplex (unknown origin) assessed as dissociation constant by fluorescence spectroscopy; type: nucleic-acid assay
[13] = Cytotoxicity against human HFL1 cells harboring wild-type KRAS assessed as cell growth inhibition incubated for 24 hrs by MTT assay; type: toxicity, cell-based
[14] = tested on: Quadruplex DNA; assay: Binding affinity to TERRA G-Quadruplex (unknown origin) assessed as melting temperature at 25 uM at 25 to 95 degreeC by CD spectroscopy (reference value: 84.2 degreeC); type: nucleic-acid assay
[15] = Toxicity in BALB/C-nu/nu mouse model xenografted with human MIA PaCa-2 cells assessed as signs of distress at 2.5 to 5 mg/kg,ip everyday for 18 days; type: organism-based; settings: in vivo, 432 h, dose 2.5-5 mg/kg, time 18 day
[16] = tested on: NCI-H358; assay: Cytotoxicity against human NCI-H358 cells harboring KRAS G12C mutant assessed as cell growth inhibition incubated for 24 hrs by MTT assay; type: functional, cell-based; settings: NCI-H358, 24 h
[17] = molecular target: GTPase KRas (Homo sapiens) (UniProt P01116); assay: Inhibition of KRAS in human MIA PaCa-2 cells assessed as decrease in AKT phosphorylation incubated for 24 hrs by Western blot analysis; type: cell-based; settings: dose 1.25-5 µM
[18] = tested on: MIA PaCa-2; assay: Effect on KRAS mRNA level in human MIA PaCa-2 cells harboring KRAS G12C mutant at upto 5 uM incubated upto 48 hrs by RT-qPCR analysis; type: functional, cell-based
[19] = Toxicity in BALB/C-nu/nu mouse model xenografted with human MIA PaCa-2 cells assessed as signs of pain at 2.5 to 5 mg/kg,ip everyday for 18 days; type: organism-based; settings: in vivo, 432 h, dose 2.5-5 mg/kg, time 18 day
[20] = tested on: Quadruplex RNA; assay: Binding affinity to NRAS RNA G-Quadruplex (unknown origin) assessed as melting temperature at 25 uM at 25 to 95 degreeC by CD spectroscopy (reference value: 82.2 degreeC); type: nucleic-acid assay
[21] = Cytotoxicity against human LX2 cells harboring wild-type KRAS assessed as cell growth inhibition incubated for 24 hrs by MTT assay; type: toxicity, cell-based, LX-2
[22] = tested on: MIA PaCa-2; assay: Induction of apoptosis in human MIA PaCa-2 cells assessed as increase in caspase-3 cleavage by Western blot analysis; type: functional, cell-based; settings: dose 1.25-5 µM
[23] = tested on: MIA PaCa-2; assay: In vivo inhibition of KRAS in human MIA PaCa-2 cells xenografted in BALB/C-nu/nu mouse model at 2.5 to 5 mg/kg,ip everyday for 18 days by Western blot analysis; type: functional, organism-based; settings: dose 2.5-5 mg/kg, time 18.0 day
[24] = tested on: HCT-116; assay: Cytotoxicity against human HCT-116 cells harboring KRAS G13D mutant assessed as cell growth inhibition incubated for 24 hrs by MTT assay; type: functional, cell-based; settings: HCT-116, 24 h
[25] = tested on: GTPase KRas (Homo sapiens), P01116 [G12C]; assay: Inhibition of KRAS G12C mutant in human NCI-H358 cells incubated for 24 hrs by Western blot analysis; type: cell-based; settings: dose <= 5.0 µM
[26] = tested on: HPAF-II; assay: Cytotoxicity against human HPAF-II cells harboring KRAS G12D mutant assessed as cell growth inhibition incubated for 24 hrs by MTT assay; type: functional, cell-based
[27] = molecular target: GTPase KRas (Homo sapiens) (UniProt P01116); assay: Inhibition of KRAS in human MIA PaCa-2 cells at 2.5 uM incubated for 24 hrs by Western blot analysis; type: cell-based
[28] = tested on: GTPase KRas (Homo sapiens), P01116 [G12C]; assay: Inhibition of KRAS G12C mutant in human MIA PaCa-2 cells at 2.5 uM by Western blot analysis; type: cell-based; settings: time <= 48.0 hrs, TDE = time-dependent effect
[29] = tested on: Quadruplex RNA; assay: Inhibition of KRAS RNA G-Quadruplex (unknown origin) translation transfected in HEK293T cells assessed as decrease in relative luciferase activity upto 5 uM incubated for 24 hrs by Dual-luciferase reporter assay; type: cell-based
[30] = molecular target: GTPase KRas (Homo sapiens) (UniProt P01116); assay: Inhibition of KRAS in human MIA PaCa-2 cells assessed as decrease in AKT phosphorylation at 2.5 uM by Western blot analysis; type: cell-based; settings: time <= 24.0 hrs, TDE = time-dependent effect
[31] = tested on: MIA PaCa-2; assay: Cytotoxicity against human MIA PaCa-2 cells harboring KRAS G12C mutant assessed as cell growth inhibition incubated for 24 hrs by MTT assay; type: functional, cell-based; settings: MIA PaCa-2, 24 h
[32] = tested on: Quadruplex RNA; assay: Binding affinity to KRAS RNA G-Quadruplex (unknown origin) assessed as melting temperature at 25 uM at 25 to 95 degreeC by CD spectroscopy (reference value: 71.4 degreeC); type: nucleic-acid assay
[33] = tested on: PANC-1; assay: Cytotoxicity against human PANC-1 cells overexpressing KRAS G12D mutant assessed as cell death incubated for 24 hrs by MTT assay; type: functional, cell-based
[34] = molecular target: Quadruplex DNA; assay: Binding affinity to HP12 G-Quadruplex (unknown origin) assessed as dissociation constant by fluorescence spectroscopy; type: nucleic-acid assay
[35] = tested on: MIA PaCa-2; assay: Effect on total KRAS mRNA level in human MIA PaCa-2 cells xenografted in BALB/C-nu/nu mouse model at 2.5 to 5 mg/kg,ip everyday for 18 days by RT-qPCR analysis; type: functional, organism-based; settings: dose 2.5-5 mg/kg, time 18.0 day
[36] = Cytotoxicity against human PANC-1 cells […] assessed as cell growth inhibition incubated for 24 hrs by MTT assay; type: functional, cell-based; settings: PANC-1, 24 h
[37] = Toxicity in BALB/C-nu/nu mouse model xenografted with human MIA PaCa-2 cells assessed as drug tolerance at 2.5 to 5 mg/kg,ip everyday for 18 days; type: organism-based; settings: in vivo, 432 h, dose 2.5-5 mg/kg, time 18 day

Sequence of GTPase KRas (Homo sapiens) (P01116 whole entry, looked up): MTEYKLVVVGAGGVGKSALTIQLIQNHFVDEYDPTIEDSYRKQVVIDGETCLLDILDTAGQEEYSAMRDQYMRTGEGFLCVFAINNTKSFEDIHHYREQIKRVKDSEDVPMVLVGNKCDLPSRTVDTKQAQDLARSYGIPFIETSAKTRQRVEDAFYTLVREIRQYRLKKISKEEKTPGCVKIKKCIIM
Sequence of GTPase KRas (Homo sapiens), P01116 [G12C] (P01116 whole entry G12C): as the sequence (P01116 whole entry, looked up) above, with G12C counted along it

Question: Which results are given for `CCN(CC)c1ccc2cc(/C=C/c3ccc4cc(F)c(NCCN5CCCC5)cc4[n+]3C)c(=O)oc2c1.[I-]`?
Answer: inhibition [1]: Active; inhibition [2]: Dose-Dependent Effect; inhibition [3]: Tde; Activity [4]: inactive; pIC50 [5]: < 4.40; Activity [6]: Non-Toxic; pIC50 [7]: 5.29; inhibition [8]: Tde; Activity [9]: inactive; pKd [10]: 6.05; pKd [11]: 5.64; pKd [12]: < 5.30; IC50 at 24 h [13]: > 40 µM; Tm [14]: 81.2 °C; Activity [15]: Non-Toxic; pIC50 [16]: 5.32; inhibition [17]: Dose-Dependent Effect; Activity [18]: inactive; Activity [19]: Non-Toxic; Tm [20]: 78.7 °C; IC50 at 24 h [21]: > 40 µM; Activity [22]: Dose-Dependent Effect; Activity [23]: Active; pIC50 [24]: 5.40; inhibition [25]: Dose-Dependent Effect; pIC50 [26]: 5.27; inhibition [27]: Active; inhibition [28]: Tde; inhibition [29]: Active; inhibition [30]: Tde; pIC50 [31]: 4.48; Tm [32]: 51.3 °C; Activity [33]: inactive; pKd [34]: < 5.30; Activity [35]: inactive; pIC50 [36]: < 4.40; Activity [37]: Non-Toxic
